Reference: article PMC5267425, “Identification of small molecule modulators of HIV-1 Tat and Rev protein accumulation” (Retrovirology, 2017)

Tests used:
[1] = system: HIV-1 clade A (N54), clade B (IIIB), PRI-, RTI- and INI-resistant strains; assay: HIV-1 replication in CEM-GXR cells (GFP positive cells, flow cytometry); type: cell-based; conditions: for IC50: Human immunodeficiency virus 1, IIIB, CEM-GXR; for HIV-1 replication of all viruses tested: clade A N54, clade B IIIB, PRI-, RTI-, INI-resistant strains
Description: Effects of compound treatment on HIV-1 gene expression were initially assessed in the context of HeLa rtTA HIV∆Mls cells stably transduced with an inducible Tet-On HIV-1 system (as previously described). The provirus was modified by either deletion in the reverse transcriptase and integrase region of the pol gene by an MlsI restriction digest (HeLa rtTA HIV∆Mls cell line) or GFP fusion to Gag, deleting the PR and RT-coding regions (HeLa rtTA HIVGagGFP cell line). […] All cell lines were maintained in Iscove’s modified Delbecco’s medium (IMDM; Wisent) supplemented with 10% (vol/vol) fetal bovine serum (FBS, Wisent), 1% penicillin/streptomycin (P/S, Wisent) and 0.2% Amphotericin B (Wisent). Indicator cell line CEM-GXR was obtained from Dr. Mark Brockman (Simon Fraser University). The RTI-resistant virus (E00443) was obtained from Dr. Zabrina Brumme (Simon Fraser University). The HIV-1 clade A (97USSN54 (N54)), HIV-1 clade B (IIIB), integrase inhibitor resistant virus (11845), protease inhibitor resistant virus (2948) were obtained through the NIH AIDS Research and Reference reagent program, Division of AIDS, NIAID, NIH).
(§1) To assess the activity of compounds against HIV-1 strains having resistance to various ART drugs, assays were performed in the context of CEM-GXR cells. These cells express CD4, CXCR4, and coreceptor, CCR5 as well as an exogenous Tat-driven LTR-GFP expression cassette. Cultures were infected with different HIV-1 strains of interest, differing on their subtypes (A and B), and resistance to three major drug targets (reverse transcriptase, protease, and integrase). The culture contains serial dilutions of the molecule in the final concentrations from 0.156 to 5 μM for 833; 725 nM to 46.87 μM for 791; 1.95 to 62.5 μM for 892. Antiviral activity was evaluated in the assay by measuring inhibition of HIV-1 spread in a coculture of CEM-GXR cells containing 1% of HIV-1 infected (GFP positive) cells using flow cytometric analysis (GuavaSoft 2.2 software, Guava HT8, Millipore). To estimate the viable cell counts, the gate in a flow cytometer (Guava HT8) was set to cover 95% of the freshly passaged uninfected CEM-GXR cell or using ViaCount™. The same parameter was employed to gate viable cells in the inhibition assay and the number of gated cells was obtained by GuavaSoft 2.2 software. For assays using ViaCount™, sample acquisition and data analysis were performed with the selection of EasyFit analysis feature using the ViaCount™ software module.

in vitro = type: cell-based; conditions: human
Experimental: as §1
Additional file 1: Figure S1. […] Cell viability was measured by an XTT assay. […] Cells were analyzed after 24 h incubation with the compounds at the indicated concentrations ranging between 0–47 μM (791), 0–5 μM (833), or 0–62.5 μM (892). Results are expressed as the percentage (%) of viable cells relative to DMSO treatment ±SEM of two independent experiments performed in triplicate. […] Images are cropped to show a representative field of view. b The dose range of the compounds which inhibit HIV-1 GagGFP expression in HeLa rtTA HIVGagGFP C7 cells was measured by mean fluorescence intensity and expressed relative to fluorescence intensity in DMSO-treated samples (N ≥ 3, *p ≤ 0.05, **p ≤ 0.01, and ***p ≤ 0.001). […]

Row | Compound | IC50 [1] [µM] | HIV-1 replication of all viruses tested [1] | CC50 at 24 h (in vitro) [µM]
1 | Cc1cc(NCc2cccnc2)n2ncc(-c3ccc(Cl)cc3)c2n1 [Compound 791, 3-(4-chlorophenyl)-5-methyl-N-(3-pyridinylmethyl)pyrazolo[1,5-a]pyrimidin-7-amine] | 4.5 | significant reductions | 24
2 | O=C(NC(=S)NNC(=O)c1ccccc1O)c1ccc(-c2ccccc2)cc1 [Compound 833, N-([2-(2-hydroxybenzoyl)hydrazino]carbonothioyl}-4-biphenylcarboxamide] | 1 | significant reductions | > 5
3 | COc1ccc(C=NNC(=O)c2ccccc2O)cc1O [Compound 892, 2-hydroxy-N′-(3-hydroxy-4-methoxybenzylidene)benzohydrazide] | – | only modest inhibitory activity | 60
